The results in this text go back to patent US10457707B2, “Substituted urea depsipeptide analogs as activators of the CLPP endopeptidase” (priority 2015, dated 2019).

The subject of this test is Streptococcus pneumoniae, R6. The test is described as follows: Minimal inhibitory concentration assay. The test is classed as cell-based. The note with it: read-out: Minimal Inhibitory Concentrations S. pneumoniae R6. Put shortly: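 Microbroth dilution with two-fold serial compound dilutions in broth, incubated aerobically overnight at 37° C. MIC taken as the lowest concentration preventing bacterial growth.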

Structures are written as SMILES. Values after ≈ are worked out from the molar mass of the structure shown. *1 amine or outer side, *2 acyl side, *3 side chain or, on linkers, in order; H or OH if unused. Where a SMILES comes first, the peptide text is derived from it. Bridges are numbered along the chain shown (N, C = ends). [ ]: non-standard residue; d: D form. The star is where a group is joined. ξ: configuration not given here. Phe(3,5-F2) = N[C@@H](Cc1cc(F)cc(F)c1)C(=O)O; NH(4-OCF3-phenyl) = FC(F)(F)Oc1ccc(N*)cc1; Morpholine(3S-CO) = O=C(O)[C@@H]1COCCN1; Pro(4S-Me) = C[C@@H]1CN[C@H](C(=O)O)C1; Pro(4R-Me) = C[C@H]1CN[C@H](C(=O)O)C1; NH(3,4-Me2-phenyl) = Cc1ccc(N*)cc1C; NMeaThr = CN[C@H](C(=O)O)[C@H](C)O; Hyp = O=C(O)[C@@H]1C[C@@H](O)CN1; NH(4-Et-phenyl) = CCc1ccc(N*)cc1; NH(4-Me-phenyl) = Cc1ccc(N*)cc1; aThr = C[C@H](O)[C@H](N)C(=O)O; Pip = O=C(O)[C@@H]1CCCCN1; NMeA = CN[C@@H](C)C(=O)O; CO = O=C([*:1])[*:2]; ξP = O=C(O)C1CCCN1

On to `C[C@@H]1C[C@H]2C(=O)OC[C@H](NC(=O)[C@H](Cc3ccccc3)NC(=O)Nc3ccc4c(c3)OCO4)C(=O)N3CCC[C@H]3C(=O)N3CCCC[C@H]3C(=O)N[C@@H](C)C(=O)N2C1` [Compound 194, (S)-2-(3-(benzo[d][1,3]dioxol-5-yl)ureido)-N-((2R,6S,8aS,14aS,20S,23aS)-2,6-dimethyl-5,8,14,19,23-pentaoxooctadecahydro-1H,5H,14H,19H-pyrido[2,1-i]dipyrrolo[2,1-c:2′,1′-l][1]oxa[4,7,10,13]tetraazacyclohexadecin-20-yl)-3-phenylpropanamide], for which the MIC is less than 0.2 µM.
On to `C[C@@H]1C[C@H]2C(=O)OC[C@H](NC(=O)[C@H](Cc3cc(F)cc(F)c3)NC(=O)Nc3ccc4c(c3)OCO4)C(=O)N3CCC[C@H]3C(=O)N3CCCC[C@H]3C(=O)N[C@@H](C)C(=O)N2C1` [Compound 195, (S)-2-(3-(benzo[d][1,3]dioxol-5-yl)ureido)-3-(3,5-difluorophenyl)-N-((2R,6S,8aS,14aS,20S,23aS)-2,6-dimethyl-5,8,14,19,23-pentaoxooctadecahydro-1H,5H,14H,19H-pyrido[2,1-i]dipyrrolo[2,1-c:2′,1′-l][1]oxa[4,7,10,13]tetraazacyclohexadecin-20-yl)propanamide], for which the MIC was found to be 0.1 µM (≈ 0.0824 µg/mL).
As for `Cc1ccc(NC(=O)N[C@@H](Cc2cc(F)cc(F)c2)C(=O)N[C@@H]2C(=O)N3CCC[C@H]3C(=O)N(C)[C@@H]([C@H](C)O)C(=O)N[C@@H](C)C(=O)N3C[C@@H](C)C[C@H]3C(=O)O[C@H]2C)cc1` [Compound 202, (S)-3-(3,5-difluorophenyl)-N-((2S,6S,9S,11aS,17S,18S,20aS)-9-((S)-1-hydroxyethyl)-2,6,10,18-tetramethyl-5,8,11,16,20-pentaoxohexadecahydro-1H,5H,16H-dipyrrolo[2,1-c:2′,1′-L][1]oxa[4,7,10,13]tetraazacyclohexadecin-17-yl)-2-(3-(p-tolyl)ureido)propanamide] ({NH(4-Me-phenyl)-CO}-[Phe(3,5-F2)][aThr]P[NMeaThr]A[Pro(4S-Me)]; ester 2-C), the MIC was determined as 0.049 µM (≈ 0.0398 µg/mL).
For the compound `C[C@H]1C[C@H]2C(=O)O[C@@H](C)[C@H](NC(=O)[C@H](Cc3cc(F)cc(F)c3)NC(=O)Nc3ccc(OC(F)(F)F)cc3)C(=O)N3CCC[C@H]3C(=O)N(C)[C@@H]([C@H](C)O)C(=O)N[C@@H](C)C(=O)N2C1` [Compound 203, (S)-3-(3,5-difluorophenyl)-N-((2S,6S,9S,11aS,17S,18S,20aS)-9-((S)-1-hydroxyethyl)-2,6,10,18-tetramethyl-5,8,11,16,20-pentaoxohexadecahydro-1H,5H,16H-dipyrrolo[2,1-c:2′,1′-l][1]oxa[4,7,10,13]tetraazacyclohexadecin-17-yl)-2-(3-(4-(trifluoromethoxy)phenyl)ureido)propanamide] ({NH(4-OCF3-phenyl)-CO}-[Phe(3,5-F2)][aThr]P[NMeaThr]A[Pro(4S-Me)]; ester 2-C), the MIC came to 0.024 µM (≈ 0.0212 µg/mL).
Next, `CCc1ccc(NC(=O)N[C@@H](Cc2cc(F)cc(F)c2)C(=O)N[C@@H]2C(=O)N3CCC[C@H]3C(=O)N(C)[C@@H]([C@H](C)O)C(=O)N[C@@H](C)C(=O)N3C[C@@H](C)C[C@H]3C(=O)O[C@H]2C)cc1` [Compound 204, (S)-3-(3,5-difluorophenyl)-2-(3-(4-ethylphenyl)ureido)-N-((2S,6S,9S,11aS,17S,18S,20aS)-9-((S)-1-hydroxyethyl)-2,6,10,18-tetramethyl-5,8,11,16,20-pentaoxohexadecahydro-1H,5H,16H-dipyrrolo[2,1-c:2′,1′-l][1]oxa[4,7,10,13]tetraazacyclohexadecin-17-yl)propanamide] ({NH(4-Et-phenyl)-CO}-[Phe(3,5-F2)][aThr]P[NMeaThr]A[Pro(4S-Me)]; ester 2-C): 0.024 µM (≈ 0.0198 µg/mL).
For `C[C@@H]1C[C@H]2C(=O)OC[C@H](NC(=O)[C@H](Cc3ccccc3)NC(=O)Nc3ccc(OC(F)(F)F)cc3)C(=O)N3CCC[C@H]3C(=O)N3CCCC[C@H]3C(=O)N[C@@H](C)C(=O)N2C1` [Compound 205] the value was 0.2 µM (≈ 0.166 µg/mL); for `Cc1ccc(NC(=O)N[C@@H](Cc2ccccc2)C(=O)N[C@H]2COC(=O)[C@@H]3C[C@@H](C)CN3C(=O)[C@H](C)NC(=O)[C@@H]3CCCCN3C(=O)[C@@H]3CCCN3C2=O)cc1C` [Compound 206, (S)—N-((2R,6S,8aS,14aS,20S,23aS)-2,6-dimethyl-5,8,14,19,23-pentaoxooctadecahydro-1H,5H,14H,19H-pyrido[2,1-i]dipyrrolo[2,1-c:2′,1′-l][1]oxa[4,7,10,13]tetraazacyclohexadecin-20-yl)-2-(3-(3,4-dimethylphenyl)ureido)-3-phenylpropanamide], less than 0.2 µM.
For the compound `Cc1ccc(NC(=O)N[C@@H](Cc2cc(F)cc(F)c2)C(=O)N[C@H]2COC(=O)[C@@H]3C[C@@H](C)CN3C(=O)[C@H](C)NC(=O)[C@@H]3CCCCN3C(=O)[C@@H]3CCCN3C2=O)cc1C` [Compound 207, (S)-3-(3,5-difluorophenyl)-N-((2R,6S,8aS,14aS,20S,23aS)-2,6-dimethyl-5,8,14,19,23-pentaoxooctadecahydro-1H,5H,14H,19H-pyrido[2,1-i]dipyrrolo[2,1-c:2′,1′-l][1]oxa[4,7,10,13]tetraazacyclohexadecin-20-yl)-2-(3-(3,4-dimethylphenyl)ureido)propanamide], the MIC was less than 0.2 µM.
For the compound `Cc1ccc(NC(=O)N[C@@H](Cc2cc(F)cc(F)c2)C(=O)N[C@@H]2C(=O)N3CCC[C@H]3C(=O)N(C)[C@@H]([C@H](C)O)C(=O)N[C@@H](C)C(=O)N3C[C@H](C)C[C@H]3C(=O)O[C@H]2C)cc1` [Compound 208, (S)-3-(3,5-difluorophenyl)-N-((2R,6S,9S,11aS,17S,18S,20aS)-9-((S)-1-hydroxyethyl)-2,6,10,18-tetramethyl-5,8,11,16,20-pentaoxohexadecahydro-1H,5H,16H-dipyrrolo[2,1-c:2′,1′-l][1]oxa[4,7,10,13]tetraazacyclohexadecin-17-yl)-2-(3-(p-tolyl)ureido)propanamide] ({NH(4-Me-phenyl)-CO}-[Phe(3,5-F2)][aThr]P[NMeaThr]A[Pro(4R-Me)]; ester 2-C), the MIC came to 0.02 µM (≈ 0.0162 µg/mL).
Regarding `Cc1ccc(NC(=O)N[C@@H](Cc2cc(F)cc(F)c2)C(=O)N[C@@H]2C(=O)N3CCC[C@H]3C(=O)N3CCCC[C@H]3C(=O)N[C@@H](C)C(=O)N3C[C@H](C)C[C@H]3C(=O)O[C@H]2C)cc1` [Compound 209, (S)-3-(3,5-difluorophenyl)-2-(3-(p-tolyl)ureido)-N-((2R,6S,8aS,14aS,20S,21S,23aS)-2,6,21-trimethyl-5,8,14,19,23-pentaoxooctadecahydro-1H,5H,14H,19H-pyrido[2,1-i]dipyrrolo[2,1-c:2′,1′-l][1]oxa[4,7,10,13]tetraazacyclohexadecin-20-yl)propanamide] ({NH(4-Me-phenyl)-CO}-[Phe(3,5-F2)][aThr]P[Pip]A[Pro(4R-Me)]; ester 2-C), the MIC was found to be 0.05 µM (≈ 0.0404 µg/mL).
For `Cc1ccc(NC(=O)N[C@@H](Cc2cc(F)cc(F)c2)C(=O)N[C@@H]2C(=O)N3CCC[C@H]3C(=O)N3CCOC[C@H]3C(=O)N[C@@H](C)C(=O)N3C[C@H](C)C[C@H]3C(=O)O[C@H]2C)cc1` [Compound 210, (S)-3-(3,5-difluorophenyl)-2-(3-(p-tolyl)ureido)-N-((6aS,12S,13S,15aS,17R,21S,23aS)-13,17,21-trimethyl-6,11,15,20,23-pentaoxooctadecahydro-6H,11H,15H-[1,4]oxazino[3,4-i]dipyrrolo[2,1-c:2′,1′-l][1]oxa[4,7,10,13]tetraazacyclohexadecin-12-yl)propanamide] ({NH(4-Me-phenyl)-CO}-[Phe(3,5-F2)][aThr]P[Morpholine(3S-CO)]A[Pro(4R-Me)]; ester 2-C), the MIC came out at 0.002 µM (≈ 0.00162 µg/mL).
With `CCc1ccc(NC(=O)N[C@@H](Cc2cc(F)cc(F)c2)C(=O)N[C@@H]2C(=O)N3C[C@H](O)C[C@H]3C(=O)N3CCCC[C@H]3C(=O)N[C@@H](C)C(=O)N3C[C@H](C)C[C@H]3C(=O)O[C@H]2C)cc1` [Compound 211, (S)-3-(3,5-difluorophenyl)-2-(3-(4-ethylphenyl)ureido)-N-((2R,6S,8aS,14aS,16R,20S,21S,23aS)-16-hydroxy-2,6,21-trimethyl-5,8,14,19,23-pentaoxooctadecahydro-1H,5H,14H,19H-pyrido[2,1-i]dipyrrolo[2,1-c:2′,1′-l][1]oxa[4,7,10,13]tetraazacyclohexadecin-20-yl)propanamide] ({NH(4-Et-phenyl)-CO}-[Phe(3,5-F2)][aThr][Hyp][Pip]A[Pro(4R-Me)]; ester 2-C), the MIC was found to be 0.005 µM (≈ 0.00419 µg/mL).
Regarding `Cc1ccc(NC(=O)N[C@@H](Cc2cc(F)cc(F)c2)C(=O)N[C@@H]2C(=O)N3C[C@H](O)C[C@H]3C(=O)N3CCCC[C@H]3C(=O)N[C@@H](C)C(=O)N3C[C@H](C)C[C@H]3C(=O)O[C@H]2C)cc1C` [Compound 212, (S)-3-(3,5-difluorophenyl)-2-(3-(3,4-dimethylphenyl)ureido)-N-((2R,6S,8aS,14aS,16R,20S,21S,23aS)-16-hydroxy-2,6,21-trimethyl-5,8,14,19,23-pentaoxooctadecahydro-1H,5H,14H,19H-pyrido[2,1-i]dipyrrolo[2,1-c:2′,1′-l][1]oxa[4,7,10,13]tetraazacyclohexadecin-20-yl)propanamide] ({NH(3,4-Me2-phenyl)-CO}-[Phe(3,5-F2)][aThr][Hyp][Pip]A[Pro(4R-Me)]; ester 2-C), the MIC is 0.002 µM (≈ 0.00168 µg/mL).
Take `C[C@@H]1NC(=O)[C@H](C)N(C)C(=O)[C@@H]2CCCN2C(=O)[C@@H](NC(=O)[C@H](Cc2ccccc2)NC(=O)Nc2ccc(OC(F)(F)F)cc2)COC(=O)C2CCCN2C1=O` (stereo partly drawn) [Compound 213, (2S)-3-phenyl-2-(3-(4-(trifluoromethoxy)phenyl)ureido)-N-((6S,9S,11aS,17S)-6,9,10-trimethyl-5,8,11,16,20-pentaoxohexadecahydro-1H,5H,16H-dipyrrolo[2,1-c:2′,1′-l][1]oxa[4,7,10,13]tetraazacyclohexadecin-17-yl)propanamide] ({NH(4-OCF3-phenyl)-CO}-FSP[NMeA]A[ξP]; ester 2-C): the MIC was less than 0.2 µM.
